Consider ten molecules from publication PMC5590943, “Pharmacological characterisation of S 47445, a novel positive allosteric modulator of AMPA receptors” (PLoS ONE, 2017).

Each structure is given as a SMILES string.

For one assay, the system named is Rat AMPA receptors. Nature of the assay: AMPA-evoked currents, Xenopus laevis oocytes injected with rat cortex poly(A+) mRNA (two-electrode voltage clamp). As to conditions: for Emax (fold increase): maximal potentiation, mean ± SEM; for EC2X: concentration giving a two-fold increase in current amplitude; for EC2X / EC50: geometric mean; for EC50: potentiation of 10 μM AMPA-evoked current. Format: cell-based. How it is done:
(§1) Compounds were tested by bath application.

For a further assay, the system named is Human AMPA receptors. Nature of the assay: AMPA-evoked currents, Xenopus laevis oocytes injected with human hippocampal poly(A+) mRNA. Format: cell-based. As to conditions: for Emax (fold increase): maximal potentiation, mean ± SEM; for EC2X: concentration giving a two-fold increase in current amplitude; for EC2X / EC50: geometric mean; for EC50: potentiation of 10 μM AMPA-evoked current. How it is done:
as §1

For assay [1], the target named is T1, GluA1flop/GluA2flip AMPA receptors (Homo sapiens, UniProt P42261+P42262, Q607R).
T1 construct: host or cells: Xenopus laevis oocytes
T1 sequence (P42261 19-906): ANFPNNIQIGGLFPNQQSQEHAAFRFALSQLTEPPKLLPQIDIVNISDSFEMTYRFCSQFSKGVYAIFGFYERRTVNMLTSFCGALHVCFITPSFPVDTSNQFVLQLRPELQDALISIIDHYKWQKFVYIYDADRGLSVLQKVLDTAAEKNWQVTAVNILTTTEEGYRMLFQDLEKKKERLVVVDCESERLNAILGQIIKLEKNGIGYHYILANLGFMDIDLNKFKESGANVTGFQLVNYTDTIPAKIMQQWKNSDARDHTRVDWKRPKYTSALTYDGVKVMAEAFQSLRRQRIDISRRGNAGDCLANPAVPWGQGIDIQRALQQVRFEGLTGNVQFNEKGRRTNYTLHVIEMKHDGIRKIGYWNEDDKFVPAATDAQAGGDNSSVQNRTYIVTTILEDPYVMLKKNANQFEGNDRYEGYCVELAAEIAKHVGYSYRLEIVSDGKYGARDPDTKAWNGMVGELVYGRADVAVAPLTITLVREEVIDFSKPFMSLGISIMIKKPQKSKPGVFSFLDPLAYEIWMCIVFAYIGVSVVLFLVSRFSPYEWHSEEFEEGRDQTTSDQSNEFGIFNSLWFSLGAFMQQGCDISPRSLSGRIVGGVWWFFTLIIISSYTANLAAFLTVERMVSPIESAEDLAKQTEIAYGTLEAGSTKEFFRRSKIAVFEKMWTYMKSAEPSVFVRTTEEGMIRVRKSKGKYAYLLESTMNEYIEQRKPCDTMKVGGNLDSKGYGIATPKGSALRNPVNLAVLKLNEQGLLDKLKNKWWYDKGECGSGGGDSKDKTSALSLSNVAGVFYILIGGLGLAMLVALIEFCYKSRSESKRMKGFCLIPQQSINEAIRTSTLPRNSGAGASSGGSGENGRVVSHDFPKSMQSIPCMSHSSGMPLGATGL
T1 sequence (P42262 22-883 isoform P42262-2 Q607R limits assumed): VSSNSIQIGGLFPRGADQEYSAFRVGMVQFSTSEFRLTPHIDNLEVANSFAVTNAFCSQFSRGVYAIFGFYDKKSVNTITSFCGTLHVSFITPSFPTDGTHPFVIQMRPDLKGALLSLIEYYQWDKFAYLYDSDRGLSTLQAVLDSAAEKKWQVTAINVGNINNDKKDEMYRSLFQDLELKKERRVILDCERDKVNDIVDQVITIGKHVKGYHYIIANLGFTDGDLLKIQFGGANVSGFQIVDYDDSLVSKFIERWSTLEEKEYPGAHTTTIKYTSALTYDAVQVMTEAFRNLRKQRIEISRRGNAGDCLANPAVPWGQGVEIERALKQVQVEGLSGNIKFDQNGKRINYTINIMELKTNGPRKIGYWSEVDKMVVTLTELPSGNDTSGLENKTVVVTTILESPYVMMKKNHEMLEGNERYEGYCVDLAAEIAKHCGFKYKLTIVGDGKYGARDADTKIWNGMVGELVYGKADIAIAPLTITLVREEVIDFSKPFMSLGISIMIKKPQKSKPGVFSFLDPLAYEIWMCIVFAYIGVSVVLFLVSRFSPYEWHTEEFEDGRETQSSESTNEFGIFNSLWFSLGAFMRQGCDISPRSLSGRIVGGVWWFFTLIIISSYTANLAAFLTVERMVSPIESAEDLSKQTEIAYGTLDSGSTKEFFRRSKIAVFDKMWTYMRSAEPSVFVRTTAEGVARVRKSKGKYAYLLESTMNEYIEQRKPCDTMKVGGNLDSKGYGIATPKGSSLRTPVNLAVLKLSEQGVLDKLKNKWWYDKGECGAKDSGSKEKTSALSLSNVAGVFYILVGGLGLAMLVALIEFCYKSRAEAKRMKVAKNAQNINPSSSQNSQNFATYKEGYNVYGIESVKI
Nature of the assay: 10 μM glutamate-evoked currents in Xenopus laevis oocytes expressing GluA1flop/GluA2flip (repetitive pulses, GYKI52466). Format: cell-based. As to conditions: GYKI52466 10 to 1000 μM; 10 μM glutamate. How it is done: as §1
To test the inhibition, the selective AMPA receptor antagonist GYKI52446 was used from 10 to 1000 μM on the potentiation caused by S 47445 (1 μM).
EC50 were determined either using Matlab (Mathworks inc., Natick, USA) or SAS v9.2 (SAS Institute inc., Cary, USA) softwares. To have a comparative value between the tested drugs when EC50 could not be determined (absence of plateau at high concentrations), the EC2X was determined. EC2X corresponds to the concentrations of the drug responsible for a two-fold increase in the amplitude of the current.

For assay [2], the system named is isolated prefrontal cortex pyramidal neurons. Also noted: method as in PMID 9221774, PMID 11408529. The note with it: patch-clamp; cited from earlier work. For orientation: In patch-clamp work, channel activity is measured electrically.
Assay [3] deals with rat primary cortical cell cultures. The experiment in a line: LDH release toxicity assay on rat primary cortical cell cultures. The note with it: MK801 1 μM; data not shown. For orientation: LDH in the medium is a marker of cell lysis.
A further assay relates to GluA3flop receptors. Also noted: method as in PMID 9221774, PMID 11408529. As to conditions: Xenopus oocytes; cited from earlier work.

`O=C(c1ccc2nccnc2c1)N1CCCCC1` [CX516]: the “Emax (fold increase)” value in the assay on Rat AMPA receptors is recorded as 1.72 ± 0.1 fold increase; with Human AMPA receptors, 3.13 fold increase.

As a reminder, the EC50 is the concentration giving half of the maximal effect. With `O=C1c2cc3c(cc2OC2CCCN12)OCCO3` (centres unmarked) [CX614], in the assay with Rat AMPA receptors, the EC2X worked out at 1.03 µM, the “Emax (fold increase)” value stood at 30.32 ± 5.67 fold increase and the EC50 turned out to be 17.3 µM. For the same molecule, in the assay with Human AMPA receptors, the EC2X worked out at 0.88 µM, the “Emax (fold increase)” value is recorded as 23.43 ± 2.32 fold increase and the EC50 amounted to 11.4 µM.

In the case of `NS(=O)(=O)c1cc2c(cc1Cl)NC(C1CC3C=CC1C3)NS2(=O)=O` (centres unmarked) [Cyclothiazide], in the assay with Rat AMPA receptors, the EC2X was 1.68 µM, the “Emax (fold increase)” value was 8.86 ± 0.79 fold increase and the half-maximal effective concentration (EC50) amounted to 8.83 µM. In the assay on Human AMPA receptors, the EC2X came out at 1.54 µM, the “Emax (fold increase)” value is 9.40 ± 2.61 fold increase and the concentration giving a half-maximal response (EC50) was 9.33 µM.

In the case of `CC1=NN=C(c2ccc(N)cc2)c2cc3c(cc2C1)OCO3.Cl.Cl` [GYKI52466, 4-(8-Methyl-9H-1,3-dioxolo[4,5-h][2,3]benzodiazepin-5-yl)-benzenamine dihydrochloride, reference compound], the “Effect on the potentiation caused by S 47445 (1 μM)” value in assay [1] is recorded as “concentration-dependently reversed”.

Turning to `CC(CNS(=O)(=O)C(C)C)c1ccc(-c2ccsc2)cc1` (centres unmarked) [LY392098], the “Increase of agonist potency” value in assay [2] is listed as “approximately 7 fold”.

Consider `CC(CNS(=O)(=O)C(C)C)c1ccc(-c2ccc(C#N)cc2)cc1` (centres unmarked) [LY404187], for which, in the assay with Rat AMPA receptors, the EC2X turned out to be 0.32 µM, the “Emax (fold increase)” value came to 16.40 ± 2.22 fold increase and the EC50 worked out at 3.01 µM. Besides, in the assay on Human AMPA receptors, the EC2X is 0.37 µM, the “Emax (fold increase)” value is 29.67 ± 2.67 fold increase and the EC50 amounted to 4.64 µM.

With `CC(C)S(=O)(=O)NC[C@H](C)c1ccc(-c2ccc(CCNS(C)(=O)=O)cc2)cc1` [LY451395], in the assay on Rat AMPA receptors, the EC2X is 0.04 µM, the “Emax (fold increase)” value is 14.03± 0.70 fold increase and the EC50 amounted to 0.37 µM.

For `C[C@]12N[C@H](Cc3ccccc31)c1ccccc12` [MK801, reference compound], the “Effect on 100 μM glutamate-mediated toxicity” value in assay [3] is “completely reversed”.

Consider `NC(=O)COc1c(F)cc(SCCNS(=O)(=O)c2ccccc2)cc1F` [PEPA, 4-[2-(Phenylsulfonylamino)ethylthio]-2,6-Difluoro-Phenoxyacetamide], for which the “Increase of agonist potency” value in the assay with GluA3flop receptors is on record as “approximately 7 fold”.

For `O=S1(=O)N[C@H]2CCCN2c2ccccc21` [S 18986], in the assay with Rat AMPA receptors, the EC2X was 23.77 µM, the “Emax (fold increase)” value is listed as 15.37 ± 2.21 fold increase and the EC50 was found to be 125 µM. Also, in the assay on Human AMPA receptors, the EC2X turned out to be 16.88 µM and the “Emax (fold increase)” value stood at 14.51 ± 1.53 fold increase.
